Holding throughout (assay type): functional, organism-based
The subject of assay [1] is Human immunodeficiency virus. As to the kind of experiment: Antiviral activity against Human immunodeficiency virus infected in MT4 cell incubated for 72 hrs by CPE based microscopic assay. Conditions: Human immunodeficiency virus 1, MT4, 72 h.
The subject of assay [2] is Human immunodeficiency virus. As to the kind of experiment: Antiviral activity against Human immunodeficiency virus. The note with it: Human immunodeficiency virus 1.
The subject of a further assay is Hepatitis B virus. As to the kind of experiment: Antiviral activity against Hepatitis B virus.

From ChEMBL document CHEMBL5241061, “Advance of structural modification of nucleosides scaffold” (Eur J Med Chem, 2021) come the findings set out here.

Molecules are shown by their SMILES.

The EC50 is the concentration that produces a half-maximal response. The low end stands for a more potent agent, the high end for a less potent agent. Take `Cc1cn(C2CC(N=[N+]=[N-])C(CO[PH](=O)OC3CCC4(C)C(C=CC5C4CCC4(C)C(C(C)CCCC(C)C)CCC54)C3)O2)c(=O)[nH]c1=O` (configuration not stated): in assay [1], the EC50 came to 0.001 µM. This lies in the single-digit nanomolar range. As for `Nc1ncnc2c1ncn2[C@H]1O[C@@H](CO)[C@H](O)C1(F)F`, the EC50 in assay [2] came out at 3.4 µM; in the assay on Hepatitis B virus, 20 µM. Turning to `Nc1ncnc2c1ncn2[C@@H]1CC[C@H](CO)O1`, the results for the EC50 (in assay [2]; with Hepatitis B virus) were 8.2 µM and 6 µM, respectively.

Take `Nc1ncnc2c1ncn2[C@@H]1C=C[C@H](CO)O1`: the EC50 in assay [2] was 0.38 µM; with Hepatitis B virus, 1.2 µM.
